Among the data in article PMC12040169 (PLOS Biology, 2025) are viability values, retold here.

The first series in a line: in vitro. The following applies: human, hela cells, % viability.
For `CCOC(=O)c1c(NC(=O)c2ccccc2C(=O)O)sc2c1CCCC2` [CBK116364], the viability at 28.5 h, 10 µM turned out to be 113%.

`Cc1ccc(C)n1-c1ccc(CC(=O)O)cc1` [CBK116374]: the viability at 28.5 h, 10 µM amounted to 92.2%.

For the compound `Cc1ccc(-c2ccccc2)n1-c1ccc(O)c(C(=O)O)c1` [CBK116375], the viability at 28.5 h, 10 µM was determined as 103%.

Take `Cc1ccc(C)n1-c1ccc(O)c(C(=O)O)c1` [CBK116381]: the viability at 28.5 h, 10 µM amounted to 94.2%.

As to `CCc1c(C)nc2ccccc2c1SCCC(=O)O` [CBK116382C], the viability at 28.5 h, 10 µM came to 118%.

For the compound `Cc1ccc(NC2(C#N)C(=O)Nc3ccccc32)cc1C` (centres unmarked) [CBK116388], the viability at 28.5 h, 10 µM was 114%.

As to `Cc1cc(N2CCN(c3ccccc3)CC2)nc(-c2ccccc2O)n1` [CBK116405], the viability at 28.5 h, 10 µM was 92.1%.

As to `N#Cc1ccc(-c2cnc(N)c(-c3ccc(NC(=O)CCN4CCCCC4)cc3)n2)cc1` [CBK116418], the viability at 28.5 h, 10 µM was determined as 85%.

As for `COC(=O)c1cn(-c2ccc(Cl)cc2)c(=O)c2ccccc12` [CBK116489], the viability at 28.5 h, 10 µM was 101%.

Consider `CCCC1CCN(c2ncnc(Oc3ccc(C(=O)c4ccc(F)cc4)cc3)c2[N+](=O)[O-])CC1` [CBK116495], for which the viability at 28.5 h, 10 µM was found to be 85%.

On to `O=C1CN(c2ccccc2)C(=O)N1c1ccccc1` [CBK116496], for which the viability at 28.5 h, 10 µM is 98.2%.

For `Cn1c(=O)n(-c2cccc(Cl)c2)c(=O)n1C` [CBK116498], the viability at 28.5 h, 10 µM stood at 82.2%.

Regarding `CCN(CC)S(=O)(=O)c1cccc(-n2sc3ccccc3c2=O)c1` [CBK116501], the viability at 28.5 h, 10 µM was 96.2%.

Turning to `CCN1CC2(CCNCC2)c2ccccc21` [CBK116520], the viability at 28.5 h, 10 µM was found to be 90.4%.

Take `O=C(c1cc(-c2ccc(Cl)cc2)[nH]n1)N1CCN(c2ncccn2)CC1` [CBK116551]: the viability at 28.5 h, 10 µM was determined as 93%.

Turning to `CC(C)(N)CNC(=O)c1cc(-c2ccc(Cl)cc2)[nH]n1` [CBK116554], the viability at 28.5 h, 10 µM came out at 91.5%.

Take `O=C(Nc1cccnc1)c1cc(-c2ccc(Cl)cc2)on1` [CBK116555]: the viability at 28.5 h, 10 µM stood at 92.8%.

On to `CN(C)CCCNC(=O)c1cc(-c2ccc(Cl)cc2)on1` [CBK116557], for which the viability at 28.5 h, 10 µM worked out at 90.2%.

Take `O=C(CC1CC1)Nc1cc(-c2ccncc2)c[nH]c1=O` [CBK116585]: the viability at 28.5 h, 10 µM amounted to 91.9%.

Regarding `CN1CCC[C@H]1C(=O)Nc1cc(-c2ccncc2)c[nH]c1=O` [CBK116587], the viability at 28.5 h, 10 µM amounted to 107%.

In the case of `COc1ccc2[nH]cc(CCNC(=O)CCC(=O)O)c2c1` [CBK116605], the viability at 28.5 h, 10 µM is 96.5%.

For `COc1ccc(COc2nc3ccccc3nc2NC(C)C)cc1OC` [CBK116610], the viability at 28.5 h, 10 µM worked out at 93.5%.

As to `COc1ccc(COc2nccnc2N2CCCC2)cc1OC` [CBK116613], the viability at 28.5 h, 10 µM was found to be 94.8%.

Turning to `FC(F)(F)c1cccnc1OCCOc1ccc(Cl)cc1` [CBK116621], the viability at 28.5 h, 10 µM came out at 90.5%.

On to `CC(C)(C)c1cc(C(=O)NCCN)n(Cc2ccc(Cl)cc2Cl)n1` [CBK116631T], for which the viability at 28.5 h, 10 µM amounted to 95.1%.

As to `O=C(Nc1ccncc1)c1cnc2cc(C(F)(F)F)ccc2c1O` [CBK116633T], the viability at 28.5 h, 10 µM came to 92.1%.

Turning to `O=C(NCc1ccccn1)c1cnn(-c2ccc(Cl)cc2)c1C(F)(F)F` [CBK116637T], the viability at 28.5 h, 10 µM was 101%.

`CN(C)C(=O)c1ccc(-c2cnc(N)c(-c3ccc(O)cc3)n2)cc1` [CBK116686]: the viability at 28.5 h, 10 µM was 91.7%.

Consider `O=C(NCc1ccc(F)cc1)N(Cc1cccc(Cl)c1)CC1CCNCC1` [CBK119479], for which the viability at 28.5 h, 10 µM was 117%.

For the compound `COc1ccc(CCCC(=O)Nc2cc3cccnc3c(Br)n2)cc1` [CBK119486], the viability at 28.5 h, 10 µM worked out at 99.6%.

As to `O=C(NC1CC2CCC(C1)N2Cc1ccccc1)c1ccc(Cl)cc1` (centres unmarked) [CBK120192], the viability at 28.5 h, 10 µM was 88.4%.

For the compound `CC1CCCCN1Cc1ccc(-c2nnn(CC(=O)NCc3ccco3)n2)cc1` (centres unmarked) [CBK122002], the viability at 28.5 h, 10 µM turned out to be 96%.

Regarding `CCN(CC)CCC(=O)N1CC2(CCN(C(=O)OCc3ccccc3)CC2)c2ccccc21` [CBK122479], the viability at 28.5 h, 10 µM stood at 106%.

With `Nc1ncc(-c2cc(C(F)(F)F)cc(C(F)(F)F)c2)nc1-c1ccc(O)cc1` [CBK122503], the viability at 28.5 h, 10 µM came to 98.3%.

Turning to `Nc1ncc(-c2ccc3c(c2)OCO3)nc1-c1ccc(O)cc1` [CBK122505], the viability at 28.5 h, 10 µM is 94.7%.

On to `Nc1ncc(-c2cccc([N+](=O)[O-])c2)nc1-c1ccc(O)cc1` [CBK122507], for which the viability at 28.5 h, 10 µM stood at 101%.

Consider `CC(=O)c1cccc(-c2cnc(N)c(-c3ccc(O)cc3)n2)c1` [CBK122508], for which the viability at 28.5 h, 10 µM is 98.1%.

For the compound `Nc1ncnc2[nH]nc(Nc3ccc(F)cc3)c12` [CBK122523], the viability at 28.5 h, 10 µM is 79%.

`O=C(O)CCSc1ccnc2ccccc12` [CBK122524C]: the viability at 28.5 h, 10 µM is 93.2%.

As for `CCC1(CC)OC(NCc2ccccc2)=NC1=O` [CBK122636], the viability at 28.5 h, 10 µM was 86.2%.

Consider `CCN(CC)CCNC(=O)c1cccc(Nc2cncc(-c3ccc(O)cc3)n2)c1` [CBK122671], for which the viability at 28.5 h, 10 µM was 96.9%.

Regarding `CCCCOc1ccc(OC(=O)C2CCN(CCCC)CC2)cc1` [CBK122680], the viability at 28.5 h, 10 µM is 112%.

Regarding `CCCCN1CCC(C(=O)Oc2ccc(OC)c3ccccc23)CC1` [CBK122682], the viability at 28.5 h, 10 µM came to 97.2%.

`Cc1cccc(C)c1NC(=O)CN(Cc1ccccc1)Cc1cc2ccc(C)c(C)c2[nH]c1=O` [CBK122696T]: the viability at 28.5 h, 10 µM came to 94.4%.

On to `CCNC(=O)N1CC2(CCN(CCOc3ccccc3)CC2)c2ccccc21` [CBK122701], for which the viability at 28.5 h, 10 µM came out at 93.9%.

In the case of `CC(C)C(=O)N1CC2(CCN(Cc3ccc(C(C)C)cc3)CC2)c2ccccc21` [CBK122702], the viability at 28.5 h, 10 µM came to 98.8%.

As to `CC(C)c1ccc(CN2CCC3(CC2)CN(CCO)c2ccccc23)cc1` [CBK122708], the viability at 28.5 h, 10 µM was determined as 93.4%.

Regarding `COc1ccc2[nH]cc(CCNC(=O)c3ccc4nc[nH]c4c3)c2c1` [CBK122714], the viability at 28.5 h, 10 µM worked out at 94.5%.

As to `COc1ccc2[nH]cc(CCNC(=O)c3ccc4[nH]c(=O)[nH]c4c3)c2c1` [CBK122721], the viability at 28.5 h, 10 µM came out at 93.4%.

Consider `COc1ccc2[nH]cc(CCNC(=O)c3cccnc3)c2c1` [CBK122722], for which the viability at 28.5 h, 10 µM amounted to 101%.

For the compound `COc1ccccc1OCC(=O)Nc1cc(C)nc2ccccc12` [CBK122728], the viability at 28.5 h, 10 µM amounted to 97.3%.

Consider `CSCCC(=O)Nc1cc(C)nc2ccccc12` [CBK122729], for which the viability at 28.5 h, 10 µM was 108%.

Turning to `Cc1cc(NC(=O)C2CCN(C)CC2)c2ccccc2n1` [CBK122730], the viability at 28.5 h, 10 µM was 91.1%.

As to `Cc1cc(NC(=O)c2c(F)cccc2F)c2ccccc2n1` [CBK122737], the viability at 28.5 h, 10 µM came to 92.7%.

As to `Cc1cc(NC(=O)c2ccc3c(c2)OCCO3)c2ccccc2n1` [CBK122739], the viability at 28.5 h, 10 µM worked out at 103%.

For the compound `COc1cc2c(cc1OC)CN(C(=O)C1CCN(C)CC1)CC2` [CBK122744], the viability at 28.5 h, 10 µM came out at 93.2%.

Regarding `COc1cc2c(cc1OC)CN(C(=O)Cn1cc(C)c(=O)[nH]c1=O)CC2` [CBK122745], the viability at 28.5 h, 10 µM is 92.4%.

Consider `COc1cc2c(cc1OC)CN(C(=O)c1cncnc1)CC2` [CBK122748], for which the viability at 28.5 h, 10 µM is 105%.

Still in this series, the particulars now being: human, hela cells, % viability, bulk resorufin, single well.
For the compound `O=[N+]([O-])c1ccc2c(c1)COC1(CCNCC1)O2` [CBK116644], the viability at 28.5 h, 10 µM turned out to be 83.7%.
